Measurements reported in patent publication US10092537B2, “Use for PAI-1 inhibitor” (RENASCIENCE CO., LTD., priority 2013, dated 2018).

The molecules below were run against human PAI-1 (Homo sapiens, UniProt P05121) (assay: Measurement of PAI-1 inhibitory activity of compound group 1 (t-PA, Spectrozyme t-PA chromogenic substrate)). Settings: read-out: PAI-1 activity %.
human PAI-1, sequence (P05121 24-402): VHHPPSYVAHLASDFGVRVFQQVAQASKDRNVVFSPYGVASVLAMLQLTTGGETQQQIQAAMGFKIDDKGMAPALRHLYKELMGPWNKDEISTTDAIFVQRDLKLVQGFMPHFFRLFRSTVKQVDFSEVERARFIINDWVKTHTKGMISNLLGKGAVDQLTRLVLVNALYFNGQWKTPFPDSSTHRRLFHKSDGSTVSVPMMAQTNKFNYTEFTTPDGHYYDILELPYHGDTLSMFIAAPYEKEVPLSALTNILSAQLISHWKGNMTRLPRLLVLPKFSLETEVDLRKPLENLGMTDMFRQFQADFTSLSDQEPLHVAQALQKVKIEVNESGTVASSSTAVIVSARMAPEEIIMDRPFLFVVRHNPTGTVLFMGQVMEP
Procedure: Subsequently, human-derived tissue plasminogen activator (t-PA) (manufactured by American Diagnostica, Inc. (USA); the same applies hereinafter) adjusted to 0.05 pmol/μL was added thereto, and the mixture was further incubated at 37° C. for 60 minutes. Then, 0.25 mM of Spectrozyme t-PA synthetic substrate (manufactured by American Diagnostica, Inc. (USA); the same applies hereinafter), which is a chromogenic substrate, was added. The final mixture contained 50 mM Tris-HCl (pH 8), 150 mM NaCl, 1% DMSO, 0.1% PEG-6000, 0.2 mM CHAPS, 5 nM PAI-1, 2 nM t-PA, 0.2 mM Spectrozyme t-PA synthetic substrate, and each compound (10 μM or 2.5 μM).
Free radical p-nitroaniline removed from the chromogenic substrate (Spectrozyme t-PA) by t-PA action was measured using a spectrophotometer at an absorbance of 405 nm at 20-minute intervals, for 120 minutes.

| SMILES | activity at 2.5 µM [%] | activity at 10 µM [%] |
| --- | --- | --- |
| O=C(COc1cccc(-c2ccoc2)c1)Nc1ccc(Br)cc1C(=O)O [Example 15, 5-bromo-2-({[3-(furan-3-yl)phenoxy]acetyl}amino)benzoic acid] | 87.3 | 3 |
| O=C(COc1ccccc1C1CCCCC1)Nc1ccc(Cl)cc1C(=O)O [Example 17, 5-chloro-2-{[(2-cyclohexylphenoxy)acetyl]amino}benzoic acid] | 52.8 | 0.8 |
| O=C(COc1ccc(-c2ccccc2)cc1)Nc1ccc(Cl)cc1C(=O)O [Example 19, 2-{[(biphenyl-4-yloxy)acetyl]amino}-5-chlorobenzoic acid] | 72.4 | 2.5 |
| O=C(COc1ccc(C23CC4CC(CC(C4)C2)C3)cc1)Nc1ccc(Cl)cc1C(=O)O [Example 21, 2-({[4-(adamantan-1-yl)phenoxy]acetyl}amino)-5-chlorobenzoic acid] | 10 | 0.3 |
| O=C(COc1cccc(-c2ccoc2)c1)Nc1ccc(-c2ccccc2)cc1C(=O)O [Example 22, 4-({[3-(furan-3-yl)phenoxy]acetyl}amino)biphenyl-3-carboxylic acid] | 29.9 | 0.4 |
| O=C(COc1cccc(C2CCCCC2)c1)Nc1ccc(Cl)cc1C(=O)O [Example 26, 5-chloro-2-{[(3-cyclohexylphenoxy)acetyl]amino}benzoic acid] | 98 | 0.6 |
| Cc1cccc(-c2ccc(NC(=O)COc3cccc(-c4ccoc4)c3)c(C(=O)O)c2)c1 [Example 27, 4-({[3-(furan-3-yl)phenoxy]acetyl}amino)-3′-methylbiphenyl-3-carboxylic acid] | 69.1 | 0.7 |
| Cc1cc(C)cc(-c2ccc(NC(=O)COc3cccc(-c4ccoc4)c3)c(C(=O)O)c2)c1 [Example 28, 4-({[3-(furan-3-yl)phenoxy]acetyl}amino)-3′,5′-dimethylbiphenyl-3-carboxylic acid] | 33.6 | 0.5 |
| O=C(COc1cccc(C23CC4CC(CC(C4)C2)C3)c1)Nc1ccc(Cl)cc1C(=O)O [Example 30, 2-({[3-(adamantan-1-yl)phenoxy]acetyl}amino)-5-chlorobenzoic acid] | 19.3 | 1.3 |
| O=C(O)c1cc(Cl)ccc1NC(=O)C1CCCN(C(=O)c2cccc(-c3ccccc3)c2)C1 (stereo not drawn) [Example 31, 2-({[1-(biphenyl-3-ylcarbonyl)piperidin-3-yl]carbonyl}amino)-5-chlorobenzoic acid] | 88 | 20.2 |
| O=C(CC(c1ccccc1)c1ccccc1)Nc1ccc(Cl)cc1C(=O)O [Example 41, 5-chloro-2-[(3,3-diphenylpropanoyl)amino]benzoic acid] | 72.4 | 12.9 |
| O=C(COc1ccc(C23CC4CC(CC(C4)C2)C3)cc1)Nc1ccc(-c2ccoc2)cc1C(=O)O [Example 47, 2-({[4-(adamantan-1-yl)phenoxy]acetyl}amino)-5-(furan-3-yl)benzoic acid] | 9.7 | 0.6 |
| Cc1ccc(-c2ccc(OCC(=O)Nc3ccc(Cl)cc3C(=O)O)cc2)cc1 [Example 49, 5-chloro-2-({[(4′-methylbiphenyl-4-yl)oxy]acetyl}amino)benzoic acid] | 82.1 | 1.1 |
| O=C(Cn1ccc2cc(-c3ccccc3)ccc21)Nc1ccc(Cl)cc1C(=O)O [Example 51, 5-chloro-2-{[(5-phenyl-1H-indol-1-yl)acetyl]amino}benzoic acid] | 37.8 | 1.7 |
| O=C(Nc1ccc(Cl)cc1C(=O)O)c1ccc(OCC23CC4CC(CC(C4)C2)C3)cc1 [Example 52, 2-({[4-(adamantan-1-ylmethoxy)phenyl]carbonyl}amino)-5-chlorobenzoic acid] | 7.2 | 5.1 |
| O=C(CCCOc1ccc(C23CC4CC(CC(C4)C2)C3)cc1)Nc1ccc(Cl)cc1C(=O)O [Example 55, 2-({4-[4-(adamantan-1-yl)phenoxy]butanoyl}amino)-5-chlorobenzoic acid] | 29.8 | 1.1 |

Further lines, results first:

| activity at 2.5 µM [%] | activity at 10 µM [%] | SMILES |
| --- | --- | --- |
| 77.4 | 21.9 | CC(C)(C)c1cccc(OCC(=O)Nc2ccc(Cl)cc2C(=O)O)c1 [Example 16, 2-{[(3-tert-butylphenoxy)acetyl]amino}-5-chlorobenzoic acid] |
| 81.4 | 16.1 | CC(C)(C)c1ccc(OCC(=O)Nc2ccc(Cl)cc2C(=O)O)cc1 [Example 18, 2-{[(4-tert-butylphenoxy)acetyl]amino}-5-chlorobenzoic acid] |
| 55.7 | 1.9 | O=C(COc1cccc(-c2ccccc2)c1)Nc1ccc(Cl)cc1C(=O)O [Example 20, 2-{[(biphenyl-3-yloxy)acetyl]amino}-5-chlorobenzoic acid] |
| 97.3 | 1.8 | Cn1c(C(=O)Nc2ccc(Cl)cc2C(=O)O)cc2cc(Br)ccc21 [Example 23, 2-{[(5-bromo-1-methyl-1H-indol-2-yl)carbonyl]amino}-5-chlorobenzoic acid] |
| 102 | 19.1 | O=C(Cn1ccc2cc(Br)ccc21)Nc1ccc(Cl)cc1C(=O)O [Example 24, 2-{[(5-bromo-1H-indol-1-yl)acetyl]amino}-5-chlorobenzoic acid] |
| 85.8 | 0 | O=C(COc1cccc(C2=CCCCC2)c1)Nc1ccc(Cl)cc1C(=O)O [Example 25, 5-chloro-2-({[3-(cyclohex-1-en-1-yl)phenoxy]acetyl}amino)benzoic acid] |
| 93.2 | 24.3 | O=C(COc1ccc(-c2ccoc2)cc1)Nc1ccc(Cl)cc1C(=O)O [Example 29, 5-chloro-2-({[4-(furan-3-yl)phenoxy]acetyl}amino)benzoic acid] |
| 94.4 | 1.7 | Cc1ccc(-c2cccc(C(=O)Nc3ccc(Cl)cc3C(=O)O)c2)cc1 [Example 32, 5-chloro-2-{[(4′-methylbiphenyl-3-yl)carbonyl]amino}benzoic acid] |
| 92.8 | 21.6 | COc1ccccc1-c1cccc(C(=O)Nc2ccc(Cl)cc2C(=O)O)c1 [Example 33, 5-chloro-2-{[(2′-methoxybiphenyl-3-yl)carbonyl]amino}benzoic acid] |
| 97.1 | 45.1 | O=C(Nc1ccc(Cl)cc1C(=O)O)c1ccc(C2=CCOCC2)cc1 [Example 34, 5-chloro-2-({[4-(3,6-dihydro-2H-pyran-4-yl)phenyl]carbonyl}amino)benzoic acid] |
| 98.8 | 15.6 | O=C(O)c1cc(Cl)ccc1NC(=O)C1(c2cccc(-c3ccoc3)c2)CC1 [Example 35, 5-chloro-2-[({1-[3-(furan-3-yl)phenyl]cyclopropyl}carbonyl)amino]benzoic acid] |
| 95.7 | 3.7 | O=C(CCc1cccc(-c2ccoc2)c1)Nc1ccc(Cl)cc1C(=O)O [Example 36, 5-chloro-2-({3-[3-(furan-3-yl)phenyl]propanoyl}amino)benzoic acid] |
| 53.1 | 5.9 | CC(C)(C(=O)Nc1ccc(Cl)cc1C(=O)O)c1cccc(-c2ccoc2)c1 [Example 37, 5-chloro-2-({2-[3-(furan-3-yl)phenyl]-2-methylpropanoyl}amino)benzoic acid] |
| 94.8 | 2.5 | O=C(O)c1cc(Cl)ccc1NC(=O)c1cccc2c1Cc1ccccc1-2 [Example 38, 5-chloro-2-[(9H-fluoren-1-ylcarbonyl)amino]benzoic acid] |
| 19.3 | 1.7 | O=C(Nc1ccc(Cl)cc1C(=O)O)c1ccc(C23CC4CC(CC(C4)C2)C3)cc1 [Example 40, 2-({[4-(adamantan-1-yl)phenyl]carbonyl}amino)-5-chlorobenzoic acid] |
| 98.6 | 3.8 | O=C(Nc1ccc(Cl)cc1C(=O)O)c1ccc(Oc2ccccc2)cc1 [Example 42, 5-chloro-2-{[(4-phenoxyphenyl)carbonyl]amino}benzoic acid] |
| 98.4 | 14.1 | O=C(Nc1ccc(Cl)cc1C(=O)O)c1cc(C(F)(F)F)cc(C(F)(F)F)c1 [Example 43, 2-({[3,5-bis(trifluoro-methyl)phenyl)carbonyl}amino)-5-chlorobenzoic acid] |
| 97.8 | 20.4 | CC(C)(Oc1cccc(-c2ccoc2)c1)C(=O)Nc1ccc(Cl)cc1C(=O)O [Example 44, 5-chloro-2-({2-[3-(furan-3-yl)phenoxy]-2-methylpropanoyl}amino)benzoic acid] |
| 2.5 | 1.7 | Cn1c(C(=O)Nc2ccc(Cl)cc2C(=O)O)cc2cc(-c3ccccc3)ccc21 [Example 48, 5-chloro-2-{[(1-methyl-5-phenyl-1H-indol-2-yl)carbonyl]amino}benzoic acid] |
| 58.9 | 0.1 | Cc1cc(C)cc(-c2ccc(OCC(=O)Nc3ccc(Cl)cc3C(=O)O)cc2)c1 [Example 50, 5-chloro-2-({[(3′,5′-dimethylbiphenyl-4-yl)oxy]acetyl}amino)benzoic acid] |
| 95.3 | 21.6 | O=C(COc1cccc(-c2ccco2)c1)Nc1ccc(Cl)cc1C(=O)O [Example 53, 5-chloro-2-({[3-(furan-2-yl)phenoxy]acetyl}amino)benzoic acid] |
| 94.4 | 15.5 | O=C(COc1ccc(-c2ccco2)cc1)Nc1ccc(Cl)cc1C(=O)O [Example 54, 5-chloro-2-({[4-(furan-2-yl)phenoxy]acetyl}amino)benzoic acid] |
| 75.8 | 0.7 | O=C(Nc1ccc(Cl)cc1C(=O)O)c1ccc(C(=O)C23CC4CC(CC(C4)C2)C3)cc1 [Example 56, 2-({[4-(adamantan-1-ylcarbonyl)phenyl]carbonyl}amino)-5-chlorobenzoic acid] |
